The target in the test is T1, Human T-type calcium channel (Cav 3.2) (Homo sapiens, UniProt O95180).
T1 construct: Edward Perez-Reyes, University of Virginia, USA; host or cells: HEK293
T1 sequence (O95180 whole entry): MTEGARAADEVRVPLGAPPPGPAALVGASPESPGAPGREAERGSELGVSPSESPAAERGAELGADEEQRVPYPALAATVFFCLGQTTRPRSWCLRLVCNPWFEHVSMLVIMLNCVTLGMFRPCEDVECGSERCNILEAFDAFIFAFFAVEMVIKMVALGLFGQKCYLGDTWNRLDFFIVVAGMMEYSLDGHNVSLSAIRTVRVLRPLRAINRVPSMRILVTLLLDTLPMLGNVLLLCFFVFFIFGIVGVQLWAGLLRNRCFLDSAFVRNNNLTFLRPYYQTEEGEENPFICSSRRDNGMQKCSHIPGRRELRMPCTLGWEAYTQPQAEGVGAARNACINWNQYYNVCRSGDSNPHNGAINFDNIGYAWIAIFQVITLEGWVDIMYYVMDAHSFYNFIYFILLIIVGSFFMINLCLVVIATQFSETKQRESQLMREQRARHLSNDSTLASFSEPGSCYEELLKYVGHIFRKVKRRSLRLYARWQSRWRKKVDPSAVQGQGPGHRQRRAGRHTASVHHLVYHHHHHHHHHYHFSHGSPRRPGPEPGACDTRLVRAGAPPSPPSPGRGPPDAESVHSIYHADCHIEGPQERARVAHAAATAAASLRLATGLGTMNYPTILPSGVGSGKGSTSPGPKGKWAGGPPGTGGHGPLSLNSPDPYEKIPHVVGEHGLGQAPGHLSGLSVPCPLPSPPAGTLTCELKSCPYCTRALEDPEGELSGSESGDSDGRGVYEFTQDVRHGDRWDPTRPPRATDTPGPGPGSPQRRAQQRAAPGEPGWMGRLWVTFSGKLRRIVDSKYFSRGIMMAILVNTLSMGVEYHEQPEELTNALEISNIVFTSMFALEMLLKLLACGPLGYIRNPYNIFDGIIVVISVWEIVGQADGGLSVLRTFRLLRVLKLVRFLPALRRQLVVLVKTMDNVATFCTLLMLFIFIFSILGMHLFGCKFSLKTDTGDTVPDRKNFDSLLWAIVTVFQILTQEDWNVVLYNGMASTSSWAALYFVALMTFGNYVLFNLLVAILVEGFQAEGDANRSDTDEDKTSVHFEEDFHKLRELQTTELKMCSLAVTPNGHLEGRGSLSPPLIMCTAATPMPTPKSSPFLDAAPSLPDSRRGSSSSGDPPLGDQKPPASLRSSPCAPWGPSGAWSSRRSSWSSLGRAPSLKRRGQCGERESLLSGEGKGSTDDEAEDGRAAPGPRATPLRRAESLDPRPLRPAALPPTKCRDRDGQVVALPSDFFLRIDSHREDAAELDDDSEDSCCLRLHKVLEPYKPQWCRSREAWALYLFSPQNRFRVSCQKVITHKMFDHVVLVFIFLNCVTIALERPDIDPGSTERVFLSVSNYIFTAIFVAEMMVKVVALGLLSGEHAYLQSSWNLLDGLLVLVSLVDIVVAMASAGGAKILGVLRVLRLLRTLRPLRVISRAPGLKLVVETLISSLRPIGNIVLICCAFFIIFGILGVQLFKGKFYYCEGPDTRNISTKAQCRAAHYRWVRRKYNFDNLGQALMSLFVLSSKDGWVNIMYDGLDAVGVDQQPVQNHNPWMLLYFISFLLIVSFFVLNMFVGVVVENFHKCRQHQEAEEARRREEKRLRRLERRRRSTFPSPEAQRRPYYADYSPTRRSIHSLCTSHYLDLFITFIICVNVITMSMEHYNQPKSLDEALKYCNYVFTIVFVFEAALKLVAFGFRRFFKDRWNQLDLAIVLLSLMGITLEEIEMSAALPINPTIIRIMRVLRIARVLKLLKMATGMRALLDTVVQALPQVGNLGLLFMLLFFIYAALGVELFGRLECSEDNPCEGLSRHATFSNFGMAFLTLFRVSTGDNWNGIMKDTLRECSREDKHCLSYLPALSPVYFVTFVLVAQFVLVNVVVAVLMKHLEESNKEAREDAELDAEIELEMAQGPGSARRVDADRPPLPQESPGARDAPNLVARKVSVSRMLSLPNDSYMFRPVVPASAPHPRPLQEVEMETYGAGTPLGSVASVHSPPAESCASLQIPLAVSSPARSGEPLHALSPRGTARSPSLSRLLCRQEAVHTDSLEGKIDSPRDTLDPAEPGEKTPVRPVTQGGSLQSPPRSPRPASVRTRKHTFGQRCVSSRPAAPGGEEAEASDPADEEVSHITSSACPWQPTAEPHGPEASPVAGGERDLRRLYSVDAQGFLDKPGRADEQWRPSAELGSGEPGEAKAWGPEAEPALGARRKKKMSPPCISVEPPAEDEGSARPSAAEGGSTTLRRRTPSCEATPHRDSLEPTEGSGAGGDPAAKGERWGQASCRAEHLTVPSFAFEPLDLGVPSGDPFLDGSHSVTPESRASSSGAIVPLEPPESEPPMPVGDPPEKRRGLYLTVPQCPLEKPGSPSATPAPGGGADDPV
Nature of the test: Calcium Influx Inhibition Assay. Type of test: cell-based. As to conditions: Human T-type calcium channel (Cav 3.2) expressing HEK293 cells, FLIPR Calcium 4 fluorescence. The procedure:
1. Calcium Influx Inhibition Assay
Human T-type calcium channel (Cav 3.2) expressing HEK293 cells were obtained from Prof. Edward Perez-Reyes, University of Virginia, USA. The calcium-sensitive fluorescent dye used was FLIPR Calcium 4 Assay Kit (Molecular Devices). To a black 96-well plate with a clear bottom coated with type I collagen, the human T-type calcium channel (Cav 3.2) expressing HEK293 cells were seeded and cultured overnight, and the culture medium was removed. A solution of the calcium-sensitive fluorescent dye was added, and the plate was incubated at 37° C. in an atmosphere of 5% carbon dioxide for 30 minutes. To the plate, a diluted solution of a compound was added, and the whole was further incubated at 37° C. in an atmosphere of 5% carbon dioxide for 30 minutes. While fluorescence was continuously analyzed from the bottom with a FlexStation 3 (Molecular Devices), a calcium solution was added. […] From the rise in the fluorescence from the base line, the inhibition percentage was calculated. The logarithms of compound concentrations were plotted with respect to the inhibition activities to give an IC50 value.
Broadly, the IC50 is the midpoint of a concentration-inhibition curve. Take `Cc1nc(C2=CCN(c3ncn(Cc4ccc(C(C)(C)C)s4)c(=O)n3)C[C@@H]2O)ccc1F` [compound 415]: the IC50 was 16 nM.

For the compound `O=c1nc(N2CC=C(c3ccc(Cl)cc3)CC2)ncn1Cc1ccc(C(F)(F)F)s1` [compound 71], the 50% inhibitory concentration (IC50) came out at 24 nM.

Take `O=c1nc(N[C@@H]2CCO[C@H](c3ccc(F)cc3)C2)ncn1Cc1ccc(C(F)(F)F)s1` (racemic) [compound 307]: the IC50 came out at 270 nM.

In the case of `O=c1nc(Nc2ccn(-c3ccc(F)cc3)c2)ncn1Cc1ccc(Cl)cc1` [compound 131], the IC50 worked out at 200 nM.

Consider `COc1nc(C2=CCN(c3nc(C)n(Cc4ccc(Br)s4)c(=O)n3)C[C@@H]2O)ccc1Cl` [compound 395], for which the IC50 was found to be 1.7 nM.

Turning to `Cc1cccc(N2CCN(c3ncn(Cn4ccc(C(F)(F)F)n4)c(=O)n3)CC2)c1` [compound 39], the half-inhibitory concentration (IC50) is 210 nM.

Regarding `O=c1nc(N2CC=C(c3ccc(F)c(F)c3)CC2)ncn1Cc1ccc(C(F)(F)F)s1` [compound 264], the IC50 amounted to 28 nM.

For `COc1ccc(C2=CCN(c3ncn(Cc4ccc(C(F)(F)F)s4)c(=O)n3)CC2)s1` [compound 300], the concentration for half-maximal inhibition (IC50) turned out to be 160 nM.

Take `CC(=O)NC1CN(c2ncn(Cc3ccc(C(F)(F)F)s3)c(=O)n2)CC=C1c1ccc(F)cc1` (centres unmarked) [compound 317]: the half-inhibitory concentration (IC50) is 56 nM.

On to `O=c1nc(N2CCN(c3ccc(F)cc3)CC2)ncn1Cc1csc(C(F)(F)F)n1` [compound 29], for which the IC50 was found to be 320 nM.

Turning to `O=c1nc(N2CC3C(C2)C3c2ccc(F)cc2)ncn1Cc1ccc(C(F)(F)F)s1` (centres unmarked) [compound 311], the IC50 was determined as 160 nM.

Regarding `Cc1nc(N2CC=C(c3ccc(F)cc3)[C@@H](O)C2)nc(=O)n1Cc1ccc(Cl)s1` [compound 403], the concentration for half-maximal inhibition (IC50) was 2 nM.

In the case of `O=c1nc(N2CCN(c3ccc(F)cc3)CC2)ncn1Cc1ccc(OC(F)(F)F)cc1` [compound 6], the 50% inhibitory concentration (IC50) stood at 19 nM.

As to `O=c1nc(N2CC=C(c3ccc(F)cc3)C(O)C2)ncn1Cc1cc2c(s1)CCCC2` (centres unmarked) [compound 201], the IC50 turned out to be 5.7 nM.

For `O=c1nc(N[C@@H]2CCN(c3ccc(F)cc3)C2)ncn1Cc1ccc(C(F)(F)F)s1` [compound 224], the IC50 was 57 nM.

Consider `O=c1nc(N2CC=C(c3ccc(F)cc3)C(O)C2)ncn1Cc1ccc(C(F)(F)F)s1` (centres unmarked) [compound 190], for which the half-inhibitory concentration (IC50) came to 3.3 nM.

Regarding `CC(c1ccc(C(F)(F)F)s1)n1cnc(N2CC=C(c3ccc(F)cc3)C(O)C2)nc1=O` (centres unmarked) [compound 202], the half-maximal inhibitory concentration (IC50) came to 47 nM.

As for `COC1CN(c2ncn(Cc3ccc(C(F)(F)F)s3)c(=O)n2)CC=C1c1ccc(F)cc1` (centres unmarked) [compound 475], the IC50 turned out to be 39 nM.

Consider `O=c1nc(N2CC=C(c3ccc(F)cc3)[C@H](O)C2)ncn1Cc1ccc(C(F)(F)F)s1` [compound 316], for which the half-inhibitory concentration (IC50) came to 2.3 nM.

As for `O=c1nc(N2CC=C(c3cc(F)cc(F)c3)CC2)ncn1Cc1ccc(C(F)(F)F)s1` [compound 285], the IC50 was determined as 56 nM.

Turning to `Cc1nc(N2CCN(c3ccc(F)cc3)CC2)nc(=O)n1Cc1ccc(C(F)(F)F)s1` [compound 344], the concentration for half-maximal inhibition (IC50) was determined as 12 nM.

Consider `O=c1nc(N2CC=C(c3ccc(Cl)cn3)CC2)ncn1Cc1ccc(C(F)(F)F)s1` [compound 256], for which the concentration for half-maximal inhibition (IC50) turned out to be 42 nM.

With `O=c1nc(N2CC=C(c3ccc(F)cc3)[C@@H](O)C2)ncn1Cc1ccc(C(F)(F)F)s1` [compound 315], the IC50 came to 0.46 nM.

With `CC(C)(C)c1ccc(Cn2cnc(N3CCN(c4ccc(F)cc4)CC3)nc2=O)cc1` [compound 5], the IC50 stood at 56 nM.

`Cc1nc(N2CC=C(c3ccc(F)cc3)C3(COCOC3)C2)nc(=O)n1Cc1ccc(C(F)(F)F)s1` [compound 486]: the concentration for half-maximal inhibition (IC50) is 410 nM.

In the case of `O=c1nc(N2CCN(c3ccc(SC(F)(F)F)cc3)CC2)ncn1Cn1ccc(C(F)(F)F)n1` [compound 43], the concentration for half-maximal inhibition (IC50) was determined as 440 nM.

As to `Cc1ccc(C2=CCN(c3nc(C)n(Cc4ccc(OS(=O)(=O)C(F)(F)F)nc4)c(=O)n3)C[C@@H]2O)cc1F` [compound 448], the IC50 came to 16 nM.

Turning to `CCCCOc1nc(N2CCN(c3ccc(F)cc3)CC2)nc(=O)n1Cc1ccc(Cl)cc1` [compound 65], the half-inhibitory concentration (IC50) amounted to 610 nM.

Regarding `C[C@@H]1CN(c2ccc(F)cc2)CCN1c1ncn(Cc2ccc(Cl)cc2)c(=O)n1` [compound 96], the IC50 came out at 110 nM.

On to `O=c1nc(N2CCN(c3ccc(F)cc3)CC2)ncn1Cc1cc2cc(Cl)ccc2o1` [compound 18], for which the IC50 came to 50 nM.

As for `Cc1nc(N2CC3CCC(C2)N3c2ccc(F)cc2)nc(=O)n1Cc1ccc(C(F)(F)F)s1` [compound 380], the IC50 stood at 310 nM.

As for `Cc1nc(N2CCC(n3cc(Br)cn3)CC2)nc(=O)n1Cc1ccc(C(F)(F)F)s1` [compound 489], the IC50 worked out at 510 nM.

In the case of `O=c1cc(C(F)(F)F)ccn1Cn1cnc(N2CCN(c3ccc(F)cc3)CC2)nc1=O` [compound 16], the IC50 amounted to 580 nM.

For the compound `O=c1nc(N2CC=C(c3ccc(F)cc3)C(O)C2)ncn1Cc1ccc2c(c1)CC(C(F)(F)F)O2` (centres unmarked) [compound 195], the half-maximal inhibitory concentration (IC50) is 3.6 nM.

`O=c1nc(N2CC=C(c3ccccc3)CC2)ncn1Cc1ccc(C(F)(F)F)s1` [compound 70]: the IC50 stood at 19 nM.

For `Cc1nc(N2CCN(c3ccc(F)cc3)CC2)nc(=O)n1CC12CC3CC(CC(C3)C1)C2` [compound 461], the IC50 was determined as 400 nM.

As to `CN(C)C1CN(c2ncn(Cc3ccc(C(F)(F)F)s3)c(=O)n2)CC=C1c1ccc(F)cc1` (centres unmarked) [compound 481], the half-inhibitory concentration (IC50) was 470 nM.

`O=c1nc(N2CCN(c3cc(F)c(F)c(F)c3)CC2)ncn1Cn1ccc(C(F)(F)F)n1` [compound 58]: the 50% inhibitory concentration (IC50) turned out to be 170 nM.

Consider `O=c1nc(NC[C@H]2CCCN2c2ccc(F)cc2)ncn1Cc1ccc(Cl)cc1` [compound 129], for which the IC50 was 60 nM.

On to `O=c1nc(N2CC=C(c3cncs3)CC2)ncn1Cc1ccc(C(F)(F)F)s1` [compound 265], for which the IC50 turned out to be 570 nM.

`Cc1nc(N2CCN(C34CC5CC(CC(C5)C3)C4)CC2)nc(=O)n1Cc1ccc(C(F)(F)F)s1` [compound 382]: the concentration for half-maximal inhibition (IC50) worked out at 860 nM.

In the case of `O=c1nc(N2CC=C(c3ccc4ocnc4c3)CC2)ncn1Cc1ccc(C(F)(F)F)s1` [compound 295], the half-inhibitory concentration (IC50) was found to be 180 nM.

`COc1cncc(C2=CCN(c3ncn(Cc4ccc(C(F)(F)F)s4)c(=O)n3)CC2)n1` [compound 272]: the IC50 was 350 nM.

With `O=c1nc(N2CC=C(c3ccc(F)cc3)[C@@H](O)C2)ncn1Cc1ccc(OS(=O)(=O)C(F)(F)F)nc1` [compound 208], the IC50 worked out at 6.2 nM.

Consider `CS(=O)(=O)NC1CN(c2ncn(Cc3ccc(C(F)(F)F)s3)c(=O)n2)CC=C1c1ccc(F)cc1` (centres unmarked) [compound 314], for which the IC50 stood at 46 nM.

With `Cc1csc(C2=CCN(c3ncn(Cc4ccc(C(F)(F)F)s4)c(=O)n3)C[C@@H]2O)c1` [compound 327], the half-maximal inhibitory concentration (IC50) is 4 nM.

Consider `O=c1nc(N2CC=C(c3ccc(F)cc3)CC2)ncn1Cc1ccc2c(c1)OCO2` [compound 182], for which the half-maximal inhibitory concentration (IC50) turned out to be 100 nM.

Turning to `Cc1cccc(C2=CCN(c3ncn(Cc4cc5c(s4)CCCC5)c(=O)n3)C[C@@H]2O)n1` [compound 430], the 50% inhibitory concentration (IC50) is 160 nM.

For `O=c1nc(N2CCN(c3ccc(F)cc3)CC2)ncn1Cc1ccc(OCC(F)(F)F)nc1` [compound 144], the IC50 stood at 96 nM.

For the compound `O=c1nc(N2CC=C(c3ccc(F)cc3)CC2)ncn1Cc1ccc(OCC(F)(F)F)cc1` [compound 468], the half-maximal inhibitory concentration (IC50) was determined as 68 nM.

In the case of `Cc1nc(N2CC=C(c3ccc(F)cc3)[C@@H](O)C2)nc(=O)n1Cc1ccc(OS(=O)(=O)C(F)(F)F)cc1` [compound 213], the IC50 was found to be 3.4 nM.

As to `Cc1ccccc1N1CCN(c2ncn(Cn3ccc(C(F)(F)F)n3)c(=O)n2)CC1` [compound 59], the IC50 came to 800 nM.

Take `Cc1nc(N2CC=C(c3ccc(F)cc3)C(CO)C2)nc(=O)n1Cc1ccc(C(F)(F)F)s1` (centres unmarked) [compound 379]: the IC50 turned out to be 54 nM.

Consider `N#Cc1ccc(N2CCN(c3ncn(Cn4ccc(C(F)(F)F)n4)c(=O)n3)CC2)cc1` [compound 49], for which the IC50 turned out to be 860 nM.

Consider `Cc1nc(N2CCN(CC(=O)C34CC5CC(CC(C5)C3)C4)CC2)nc(=O)n1Cc1ccc(C(F)(F)F)s1` [compound 487], for which the IC50 is 500 nM.

With `O=c1nc(N2CCN(c3ccc(F)cc3)CC2)ncn1Cc1ccc(C(F)(F)F)cc1` [compound 3], the half-inhibitory concentration (IC50) turned out to be 100 nM.

Regarding `NC1CN(c2ncn(Cc3ccc(C(F)(F)F)s3)c(=O)n2)CC=C1c1ccc(F)cc1` (centres unmarked) [compound 321], the IC50 was found to be 3.6 nM.

As for `Cc1cc(C2=CCN(c3ncn(Cc4ccc(C(F)(F)F)s4)c(=O)n3)CC2)sn1` [compound 275], the half-maximal inhibitory concentration (IC50) was determined as 30 nM.

Regarding `Cc1nc(N2CC=C(c3ccc(F)cc3)[C@@H](O)C2)nc(=O)n1C(C)c1ccc(C(F)(F)F)s1` (some centres unmarked) [compound 453], the IC50 was 24 nM.

With `COc1nc(N2CCN(c3ccc(F)cc3)CC2)nc(=O)n1Cc1ccc(OCc2ccc(Cl)cc2)cc1` [compound 66], the half-maximal inhibitory concentration (IC50) was determined as 88 nM.

`COc1nc(N2CCN(c3ccc(F)cc3)CC2)nc(=O)n1Cc1ccc(Cl)cc1` [compound 31]: the IC50 was found to be 230 nM.

With `O=c1nc(N[C@@H]2CO[C@H](c3ccc(F)cc3)C2)ncn1Cc1ccc(C(F)(F)F)s1` (racemic) [compound 309], the half-inhibitory concentration (IC50) worked out at 520 nM.

As to `Cc1csc(C2=CCN(c3nc(C)n(Cc4ccc(C(F)(F)F)s4)c(=O)n3)C[C@@H]2O)c1` [compound 362], the half-inhibitory concentration (IC50) is 1.5 nM.

`O=c1nc(N[C@@H]2CCCN(c3ccc(F)cc3)C2)ncn1Cc1ccc(Cl)cc1` [compound 82]: the IC50 stood at 120 nM.

Turning to `O=c1nc(N2CC=C(c3cnn(CC(F)(F)F)c3)CC2)ncn1Cc1ccc(C(F)(F)F)s1` [compound 259], the IC50 was 600 nM.

Values taken from patent US9403798B2, “Triazinone compound and T-type calcium channel inhibitor” (NISSAN CHEMICAL INDUSTRIES, LTD., priority 2012, dated 2016).
